In patent US10377783B2, “Methods and compounds for enhancing contrast in magnetic resonance imaging (MRI)” (priority 2015, dated 2019):
Where two headings read alike, the source gives them in different places.

Assays:
serum albumin = serum albumin (Homo sapiens, UniProt P02768); conditions: cited from earlier work
[1] = cited from earlier work; for Clearance (route) / Clearance (time; half-life): in vivo; for uptake by hepatocytes: during excretion
[2] = Relaxivity measurements (T1 and T2 relaxation times, Bruker minispec mq60/mq20); format: physicochemical; conditions: aqueous solution, 37° C.
Procedure: T1 and T2 relaxation times were measured at the STTARR Innovation Centre in Toronto, Canada using a Bruker minispec mq60, and at the Bruker Showroom in Milton, Canada using a Bruker minispec mq20. Measurements were carried out on a series of 6 aqueous dilutions between 0-5 mM.
The T1 and T2 relaxation times of the 8 soluble, pure complexes were measured in aqueous solution at 37° C., at both 20 and 60 MHz.

[3] = test system: primary rat renal proximal tubule epithelial cells (RPTECs); assay: In vitro toxicity, MTT assay; format: cell-based; conditions: for IC50: rat RPTECs, MTT, read-out: Inhibitory concentration IC50; for cytotoxicity: 10 h time point, compared with 4 h
Procedure: Gadodiamide (Selleckchem, Lot #02) was used as the reference compound. It is one of the 8 Gd(III)-based MRI agents approved for use in Canada (trade name: Omniscan™).
The test articles and reference compound were weighed and dissolved in the incubation medium to give the highest test concentration of 30 mM. The solution was filter sterilized and diluted to the remaining test concentrations of 10 mM, 3.3 mM, 1.1 mM, 0.36 mM, 0.12 mM and 0.04 mM.
Cryopreserved primary rat renal proximal tubule epithelial cells (RPTECs) (ScienCell Research Laboratories, Carlsbad, Calif.) were used for the study. The rat RPTECs were thawed completely at 37° C., and transferred to epithelial cell medium (ScienCell Research Laboratories, Carlsbad, Calif.) followed by plating in poly-L-lysine coated 96-well plates. The RPTECs were allowed to recover and grow in a cell culture incubator (37° C., humidified atmosphere of 5% carbon dioxide and 95% air) for 3 additional days with a medium change every alternate day.
Following 3 days of plating, the RPTECs were washed once with serum free epithelial cell medium (ScienCell Research Laboratories, Carlsbad, Calif.) followed by treatment with the test, reference or control articles for 2, 4, 10 or 24 h. All treatments were performed in triplicate.
Cellular viability and metabolic activity were assessed by using the 3-(4,5-dimethylthiazol-2-yl)-2,5-diphenyl tetrazolium bromide (MTT) uptake assay. A 10× stock of the MTT dye was prepared in phosphate buffered saline (PBS). An aliquot of dye was added 2 hrs before the intended time point to achieve a final 1× concentration, after which incubation (37° C., humidified atmosphere of 5% carbon dioxide and 95% air) continued until the desired time point. For the 2 hr time point, the aliquot of dye was added immediately after the test articles. Following incubation, all media was aspirated from the wells and the plates were allowed to dry. The resulting formazan crystals were dissolved in DMSO using an orbital shaker, and the absorbance at 570 nm was measured using a Victor ^3V multilabel plate reader (reference wavelength=650 nm).
The inhibitory concentration (IC50, the concentration resulting in 50% toxicity) was determined by plotting log concentration vs. relative viability, followed by non-linear regression of the curve using Graph Pad Prism 5.0.
An in vitro toxicity study was performed in order to evaluate the cytotoxic potential of several of the agents in primary rat renal proximal tubule epithelial cells (RPTECs), prior to performing in vivo studies. The Mn^II and Gd^III complexes of L1, L2 and L6 (complexes 1, 2, 5, and 7-9) were evaluated at seven concentrations (30 mM, 10 mM, 3.3 mM, 1.1 mM, 0.36 mM, 0.12 mM and 0.04 mM) after 2, 4, 10 and 24 hours of treatment in rat RPTECs. The MTT assay was used as an indicator of viability. The nephrotoxic potential of the test articles was compared to the toxicity observed in the presence of the approved agent Gadodiamide. The results are summarized in Table 4, where the inhibitory concentration (IC50, the concentration resulting in 50% toxicity) was determined by plotting log concentration vs. relative viability.

Sequence of serum albumin (P02768 25-609): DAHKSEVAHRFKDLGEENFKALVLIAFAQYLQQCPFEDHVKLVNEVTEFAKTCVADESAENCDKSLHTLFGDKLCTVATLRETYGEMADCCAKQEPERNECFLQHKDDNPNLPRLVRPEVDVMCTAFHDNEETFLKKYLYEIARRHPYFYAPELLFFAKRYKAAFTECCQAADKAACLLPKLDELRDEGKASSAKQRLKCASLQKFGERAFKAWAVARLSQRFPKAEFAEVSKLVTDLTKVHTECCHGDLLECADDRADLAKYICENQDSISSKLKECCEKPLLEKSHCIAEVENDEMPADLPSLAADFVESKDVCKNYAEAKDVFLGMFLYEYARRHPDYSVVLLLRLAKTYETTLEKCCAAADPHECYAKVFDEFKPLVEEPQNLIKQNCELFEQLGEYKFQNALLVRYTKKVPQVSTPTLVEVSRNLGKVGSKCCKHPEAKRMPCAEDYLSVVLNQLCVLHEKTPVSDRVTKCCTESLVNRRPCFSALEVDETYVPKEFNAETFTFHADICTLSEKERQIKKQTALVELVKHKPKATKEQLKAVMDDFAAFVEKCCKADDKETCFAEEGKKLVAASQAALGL

SMILES: O=C([O-])CN(CCN(CC(=O)[O-])C[C@H](COP(=O)([O-])OC1CCC(c2ccccc2)(c2ccccc2)CC1)N(CC(=O)[O-])CC(=O)[O-])CC(=O)[O-].[Gd+3].[H+].[H+].[H+] [Ablavar or Vasovist, gadofosveset]
- binding to serum albumin (serum albumin): selectively binds to the blood protein serum albumin
- Clearance (route) [1]: renal/hepatic
- Clearance (time; half-life) [1]: 18.5 h

SMILES: O=C([O-])CN1CCN(CC(=O)[O-])CCN([C@H](CO)[C@H](O)CO)CCN(CC(=O)[O-])CC1.[Gd+3] (racemic) [Gadavist, gadobutrol]
- Clearance (route) [1]: renal

SMILES: CC1=Nc2ccccc2OCCOCCOc2ccccc2N=C(C)c2cccc1n2.O.O.[Cl-].[Cl-].[Mn+2] [Compound 5, [MnL6Cl2].2H2O]
- r1 relaxivity ([2]; 20 MHz): 7.22 s⁻¹ mM⁻¹
- r1 relaxivity ([2]; 60 MHz): 2.97 s⁻¹ mM⁻¹
- IC50 ([3]; 2 hr treatment): 1250 µM
- IC50 ([3]; 4 hr treatment): 670 µM
- IC50 ([3]; 10 hr treatment): 1390 µM
- cytotoxicity [3]: exhibited a slight reduction in toxicity
- IC50 ([3]; 24 hr treatment): 210 µM

SMILES: CC(O)CN1CCN(CC(=O)[O-])CCN(CC(=O)[O-])CCN(CC(=O)[O-])CC1.[Gd+3] (stereo not shown) [Prohance, gadoteridol]
- Clearance (route) [1]: renal
- Clearance (time; half-life) [1]: 1.57 h

SMILES: CNC[C@H](O)[C@@H](O)[C@H](O)[C@H](O)CO.O=C([O-])CN1CCN(CC(=O)[O-])CCN(CC(=O)O)CCN(CC(=O)[O-])CC1.[Gd+3] [Dotarem, gadoterate]
- Clearance (route) [1]: renal

SMILES: CNC(=O)CN(CCN(CCN(CC(=O)[O-])CC(=O)NC)CC(=O)[O-])CC(=O)[O-].[Gd+3] [Gadodiamide, gadodiamide, reference compound]
- nephrotoxicity ([3]; 2 and 4 h of treatment, 0.04-30 mM): did not show significant nephrotoxicity
- IC50 ([3]; 10 hr treatment): > 30000 µM
- cytotoxicity [3]: showed more toxicity than earlier time points
- nephrotoxic effects ([3]; 24 h of treatment): exhibiting the least nephrotoxic effects
- IC50 ([3]; 24 hr treatment): 31000 µM
- Clearance (route) [1]: renal
- Clearance (time; half-life) [1]: 1.30 h

SMILES: COCCNC(=O)CN(CCN(CCN(CC(=O)[O-])CC(=O)NCCOC)CC(=O)[O-])CC(=O)[O-].[Gd+3] [OptiMARK, gadoversetamide]
- Clearance (route) [1]: renal
- Clearance (time; half-life) [1]: 1.73 h

SMILES: O=C([O-])CN(CCN(CC(=O)[O-])CC(=O)O)CCN(CC(=O)[O-])CC(=O)O.[Gd+3] [Magnevist, gadopentetate]
- Clearance (route) [1]: renal
- Clearance (time; half-life) [1]: 1.60 h

SMILES: CC1=NCCNCCNCCN=C(C)c2cccc1n2.O.O.O.[Cl-].[Cl-].[Cl-].[Gd+3] [Compound 7, [GdL1Cl3].3H2O]
- r1 relaxivity ([2]; 20 MHz): 6.43 s⁻¹ mM⁻¹
- r1 relaxivity ([2]; 60 MHz): 5.58 s⁻¹ mM⁻¹
- IC50 ([3]; 2 hr treatment): 8150 µM
- IC50 ([3]; 4 hr treatment): 3370 µM
- IC50 ([3]; 10 hr treatment): 8530 µM
- cytotoxicity [3]: exhibited a slight reduction in toxicity
- IC50 ([3]; 24 hr treatment): 920 µM

SMILES: CCOc1ccc(CC(CN(CCN(CC(=O)[O-])CC(=O)[O-])CC(=O)[O-])N(CC(=O)[O-])CC(=O)[O-])cc1.[Gd+3].[Na+].[Na+] (stereo not shown) [Eovist or Primovist, gadoxetate]
- uptake by hepatocytes [1]: taken up by hepatocytes during excretion
- Clearance (route) [1]: renal/hepatic

SMILES: CNC[C@H](O)[C@@H](O)[C@H](O)[C@H](O)CO.CNC[C@H](O)[C@@H](O)[C@H](O)[C@H](O)CO.O=C([O-])CN(CCN(CC(=O)[O-])CC(=O)O)CCN(CC(=O)O)C(COCc1ccccc1)C(=O)[O-].[Gd+3] (stereo not shown) [Multihance, gadobenate]
- uptake by hepatocytes [1]: taken up by hepatocytes during excretion
- Clearance (route) [1]: renal/hepatic
- Clearance (time; half-life) [1]: 1.2 to 2 h
